Source: PMC6001238, “Iterative Chemical Engineering of Vancomycin Leads to Novel Vancomycin Analogs With a High in Vitro Therapeutic Index” (Frontiers in Microbiology, 2018)
Values after ≈ are worked out from the molar mass of the structure shown. Like-named read-outs stand apart in the source and are kept apart here.

Assays:
E. faecalis VRE 29 = assay: MIC, broth microdilution, vancomycin-resistant E. faecalis VRE 29 (VanA); type: cell-based, Enterococcus faecalis; settings: for MIC: Enterococcus faecalis VRE 29 (vancomycin-resistant), read-out: MIC; for MIC-fold improvement vs. vancomycin: VRE 29, ratio of MIC of vancomycin and MIC of analogue
In short: (§1)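 Susceptibility was scored by broth microdilution (CLSI). In one instance each vancomycin analog or control antibiotic was tested in the presence of vancomycin, 10 μM final, and ultrapure water plus non-inoculated broth were included as controls.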

S. aureus VISA/HIP5827 = assay: MIC, broth microdilution, vancomycin-intermediate S. aureus VISA HIP5827; type: cell-based, Staphylococcus aureus; settings: for MIC: Staphylococcus aureus VISA/HIP5827, read-out: MIC; for MIC-fold improvement vs. vancomycin: VISA/HIP5827, ratio of MIC of vancomycin and MIC of analogue
In short: as §1

E. coli XL-1 blue MRF' = assay: MIC, broth microdilution, E. coli XL-1 blue MRF'; type: cell-based, Escherichia coli; settings: E. coli XL-1 blue MRF'; for MICvanc/MICi: ratio of MIC of vancomycin and MIC of analogue
Protocol: (§2) The minimum inhibitory concentration (MIC) was determined using the broth microdilution method according to the antimicrobial susceptibility testing standards of the clinical and laboratory standards institute ([Clinical and Laboratory Standards Institute [CLSI], 2012]). Ultrapure water and non-inoculated broth were used as controls. In one case, a final concentration of 10 μM vancomycin was included with the vancomycin analog or control antibiotic.

[1] = tested on: human cervix carcinoma (HeLa) cells; assay: Cytostatic activity, HeLa cell proliferation; type: cell-based; settings: mean ± SD of three experiments; highest concentration tested 250 µM; 4 days; read-out: Toxicity (IC50) HeLa
In short: (§3)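 Readout: Coulter cell number after drug exposure at 37°C. Durations differ by line (L1210 2 days; CEM 3 days; HeLa 4 days). Stock suspension 300,000–500,000 cells/mL, diluted by mixing with compound. Endpoint: IC50 vs negative control.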

MRSA KS6 = assay: MIC, broth microdilution, MRSA KS6; type: cell-based, Staphylococcus aureus; settings: for MIC-fold improvement vs. vancomycin: MRSA KS6, ratio of MIC of vancomycin and MIC of analogue; for MIC: Staphylococcus aureus MRSA KS6, read-out: MIC
In short: as §1

E. faecalis VSE 1 = assay: MIC, broth microdilution, vancomycin-sensitive E. faecalis (VSE 1); type: cell-based, Enterococcus faecalis; settings: for MICvanc/MICi / MIC-fold improvement vs. vancomycin: ratio of MIC of vancomycin and MIC of analogue; for MIC: read-out: MIC; for MIC-fold improvement vs. vancomycin: VSE 1
In short: as §1

E. faecalis VRE 53 = assay: MIC, broth microdilution, vancomycin-resistant E. faecalis VRE 53 (VanA); type: cell-based, Enterococcus faecalis; settings: for MICvanc/MICi / MIC-fold improvement vs. vancomycin: ratio of MIC of vancomycin and MIC of analogue; for MIC: read-out: MIC; for MIC-fold improvement vs. vancomycin: VRE 53
In short: as §1

[2] = tested on: L1210, CEM and HeLa cell lines; assay: Cytostatic activity, average or summary over L1210, CEM and HeLa; type: cell-based; settings: average of L1210, CEM and HeLa; read-out: Toxicity (IC50) Average
In short: as §3

MRSA KS89 = assay: MIC, broth microdilution, MRSA KS89; type: cell-based, Staphylococcus aureus; settings: for MIC-fold improvement vs. vancomycin: MRSA KS8, ratio of MIC of vancomycin and MIC of analogue; for MIC: Staphylococcus aureus MRSA KS8, read-out: MIC
In short: as §1

E. faecalis VRE 6 = assay: MIC, broth microdilution, vancomycin-resistant E. faecalis VRE 6 (VanA); type: cell-based, Enterococcus faecalis; settings: for MIC: read-out: MIC
In short: as §1

[3] = tested on: human T-lymphocyte (CEM) cells; assay: Cytostatic activity, CEM cell proliferation; type: cell-based; settings: mean ± SD of three experiments; highest concentration tested 250 µM; 3 days; read-out: Toxicity (IC50) CEM
In short: as §3

MRSA KS2 = assay: MIC, broth microdilution, MRSA KS2; type: cell-based, Staphylococcus aureus; settings: for MIC-fold improvement vs. vancomycin: MRSA KS2, ratio of MIC of vancomycin and MIC of analogue; for MIC: Staphylococcus aureus MRSA KS2, read-out: MIC
In short: as §1

E. faecalis VRE 37 = assay: MIC, broth microdilution, vancomycin-resistant E. faecalis VRE 37 (VanA); type: cell-based, Enterococcus faecalis; settings: for MIC: Enterococcus faecalis VRE 37 (vancomycin-resistant), read-out: MIC
In short: as §1

[4] = tested on: S. aureus VSSA (ATCC 6538); assay: MIC, broth microdilution, vancomycin-sensitive S. aureus (VSSA/MSSA, ATCC 6538); type: cell-based, Staphylococcus aureus; settings: for MIC: Staphylococcus aureus VSSA, read-out: MIC; for MIC-fold improvement vs. vancomycin: VSSA, ratio of MIC of vancomycin and MIC of analogue
In short: as §1

S. aureus VRSA = assay: MIC, broth microdilution, vancomycin-resistant S. aureus (VRSA); type: cell-based, Staphylococcus aureus; settings: for MIC: Staphylococcus aureus VRSA, read-out: MIC; for MIC-fold improvement vs. vancomycin: VRSA, ratio of MIC of vancomycin and MIC of analogue
In short: as §1

MRSA KS1 = assay: MIC, broth microdilution, MRSA KS1; type: cell-based, Staphylococcus aureus; settings: for MIC-fold improvement vs. vancomycin: MRSA KS1, ratio of MIC of vancomycin and MIC of analogue; for MIC: Staphylococcus aureus MRSA KS1, read-out: MIC
In short: as §1

[5] = tested on: Murine leukemia (L1210) cells; assay: Cytostatic activity, L1210 cell proliferation; type: cell-based; settings: mean ± SD of three experiments; highest concentration tested 250 µM; 2 days; read-out: Toxicity (IC50) L1210
In short: as §3

B. subtilis PSB3 = assay: MIC, broth microdilution, B. subtilis PSB3; type: cell-based, Bacillus subtilis; settings: for MICvanc/MICi: ratio of MIC of vancomycin and MIC of analogue
Protocol: as §2

[6] = Enterococcus faecalis VSE 1 (vancomycin-sensitive)
[7] = Enterococcus faecalis VRE 53 (vancomycin-resistant)
[8] = E. faecalis VRE 6, ratio of MIC of vancomycin and MIC of analogue
[9] = Enterococcus faecalis VRE 6 (vancomycin-resistant)

C#Cc1ccc(C=Cc2ccc(NC(=O)CNC(=O)C3NC(=O)C4NC(=O)C(NC(=O)C5NC(=O)C(CC(N)=O)NC(=O)C(NC(=O)C(CC(C)C)NC)C(O)c6ccc(c(Cl)c6)Oc6cc5cc(c6OC5OC(CO)C(O)C(O)C5OC5CC(C)(N)C(O)C(C)O5)Oc5ccc(cc5Cl)C4O)c4ccc(O)c(c4)-c4c(O)cc(O)cc43)cc2)cc1 (centres unmarked) [Vanc-R]
MIC (E. faecalis VRE 29): 1.56 µM (≈ 2.66 µg/mL) | MIC-fold improvement vs. vancomycin (E. faecalis VRE 29): 256 | MIC (S. aureus VISA/HIP5827): 0.78 µM (≈ 1.33 µg/mL) | MIC-fold improvement vs. vancomycin (S. aureus VISA/HIP5827): 8 | MIC (E. coli XL-1 blue MRF'): 100 µM (≈ 171 µg/mL) | MICvanc/MICi (E. coli XL-1 blue MRF'): 1 | IC50 [1]: 15 ± 1 µM | MIC-fold improvement vs. vancomycin (MRSA KS6): 2 | MIC (MRSA KS6): 0.39 µM (≈ 0.666 µg/mL) | MICvanc/MICi (E. faecalis VSE 1; E. faecalis VSE 1): 8 | MIC (E. faecalis VSE 1; E. faecalis VSE 1): 0.20 µM (≈ 0.342 µg/mL) | MIC (E. faecalis VSE 1; [6]): 0.19 µM (≈ 0.324 µg/mL) | MIC-fold improvement vs. vancomycin (E. faecalis VSE 1): 8 | MICvanc/MICi (E. faecalis VRE 53; E. faecalis VRE 53): 64 | MIC (E. faecalis VRE 53; E. faecalis VRE 53): 6.25 µM (≈ 10.7 µg/mL) | MIC (E. faecalis VRE 53; [7]): 6.25 µM (≈ 10.7 µg/mL) | MIC-fold improvement vs. vancomycin (E. faecalis VRE 53): 64 | IC50 [2]: 7 µM | MIC-fold improvement vs. vancomycin (MRSA KS89): 2 | MIC (MRSA KS89): 0.39 µM (≈ 0.666 µg/mL) | MICvanc/MICi (E. faecalis VRE 6; [8]): 64 | MIC (E. faecalis VRE 6; E. faecalis VRE 6): 3.13 µM (≈ 5.34 µg/mL) | MIC (E. faecalis VRE 6; [9]): 3.13 µM (≈ 5.34 µg/mL) | IC50 [3]: 1.4 ± 0.6 µM | MIC-fold improvement vs. vancomycin (MRSA KS2): 2 | MIC (MRSA KS2): 0.39 µM (≈ 0.666 µg/mL) | MIC (E. faecalis VRE 37): 12.5 µM (≈ 21.3 µg/mL) | MIC-fold improvement vs. vancomycin (E. faecalis VRE 37; VRE 37, ratio of MIC of vancomycin and MIC of analogue): 64 | MIC [4]: 0.10 µM (≈ 0.171 µg/mL) | MIC-fold improvement vs. vancomycin [4]: 8 | MIC (S. aureus VRSA): 1.56 µM (≈ 2.66 µg/mL) | MIC-fold improvement vs. vancomycin (S. aureus VRSA): 64 | MIC-fold improvement vs. vancomycin (MRSA KS1): 1 | MIC (MRSA KS1): 0.78 µM (≈ 1.33 µg/mL) | IC50 [5]: 5.7 ± 0.7 µM | MIC (B. subtilis PSB3): 0.78 µM (≈ 1.33 µg/mL) | MICvanc/MICi (B. subtilis PSB3): 0.5

C#Cc1ccc(-c2ccc(C(=O)NCCCNC(=O)[C@H]3NC(=O)[C@H]4NC(=O)[C@H](NC(=O)[C@@H]5NC(=O)[C@H](CC(N)=O)NC(=O)[C@H](NC(=O)[C@@H](CC(C)C)NC)[C@H](O)c6ccc(c(Cl)c6)Oc6cc5cc(c6O[C@@H]5O[C@H](CO)[C@@H](O)[C@H](O)[C@H]5O[C@H]5C[C@](C)(N)[C@H](O)[C@H](C)O5)Oc5ccc(cc5Cl)[C@H]4O)c4ccc(O)c(c4)-c4c(O)cc(O)cc43)cc2)cc1 [Vanc-S]
MIC (E. faecalis VRE 29): 6.25 µM (≈ 10.7 µg/mL) | MIC-fold improvement vs. vancomycin (E. faecalis VRE 29): 64 | MIC (S. aureus VISA/HIP5827): 0.39 µM (≈ 0.667 µg/mL) | MIC-fold improvement vs. vancomycin (S. aureus VISA/HIP5827): 16 | MIC (E. coli XL-1 blue MRF'): 50 µM (≈ 85.5 µg/mL) | MICvanc/MICi (E. coli XL-1 blue MRF'): 2 | IC50 [1]: 70 ± 8 µM | MIC-fold improvement vs. vancomycin (MRSA KS6): 2 | MIC (MRSA KS6): 0.39 µM (≈ 0.667 µg/mL) | MICvanc/MICi (E. faecalis VSE 1; E. faecalis VSE 1): 64 | MIC (E. faecalis VSE 1; E. faecalis VSE 1): 0.03 µM (≈ 0.0513 µg/mL) | MIC (E. faecalis VSE 1; [6]): 0.03 µM (≈ 0.0513 µg/mL) | MIC-fold improvement vs. vancomycin (E. faecalis VSE 1): 64 | MICvanc/MICi (E. faecalis VRE 53; E. faecalis VRE 53): 128 | MIC (E. faecalis VRE 53; E. faecalis VRE 53): 3.13 µM (≈ 5.35 µg/mL) | MIC (E. faecalis VRE 53; [7]): 3.13 µM (≈ 5.35 µg/mL) | MIC-fold improvement vs. vancomycin (E. faecalis VRE 53): 128 | IC50 [2]: 29 µM | MIC-fold improvement vs. vancomycin (MRSA KS89): 4 | MIC (MRSA KS89): 0.20 µM (≈ 0.342 µg/mL) | MICvanc/MICi (E. faecalis VRE 6; [8]): 256 | MIC (E. faecalis VRE 6; E. faecalis VRE 6): 0.78 µM (≈ 1.33 µg/mL) | MIC (E. faecalis VRE 6; [9]): 0.78 µM (≈ 1.33 µg/mL) | MIC-fold improvement vs. vancomycin (E. faecalis VRE 6; VRE 6, ratio of MIC of vancomycin and MIC of analogue): 256 | IC50 [3]: 5.6 ± 1.1 µM | MIC-fold improvement vs. vancomycin (MRSA KS2): 4 | MIC (MRSA KS2): 0.20 µM (≈ 0.342 µg/mL) | MIC (E. faecalis VRE 37): 25 µM (≈ 42.7 µg/mL) | MIC [4]: 0.10 µM (≈ 0.171 µg/mL) | MIC-fold improvement vs. vancomycin [4]: 8 | MIC (S. aureus VRSA): 0.78 µM (≈ 1.33 µg/mL) | MIC-fold improvement vs. vancomycin (S. aureus VRSA): 128 | MIC-fold improvement vs. vancomycin (MRSA KS1): >8 | MIC (MRSA KS1): <0.10 µM | IC50 [5]: 10 ± 4 µM | MIC (B. subtilis PSB3): 0.20 µM (≈ 0.342 µg/mL) | MICvanc/MICi (B. subtilis PSB3): 2
